Target: T1, ALK (baculovirus expressed human ALK kinase domain F1098-K1410) (Homo sapiens, UniProt Q9UM73)
T1 construct: human ALK kinase domain F1098-K1410; made in house
Assay: biochemical
Conditions: 1 μM ATP, 4 μM poly-AEKY, 12 nM ALK, 2 hours at ambient temperature; read-out: ALK IC50
How it was run: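 Baculovirus-expressed human ALK kinase domain (F1098-K1410) was run in a luciferase-coupled chemiluminescent format, with ATP near its KM. After 2 h at ambient temperature, remaining ATP was read by luciferase-luciferin luminescence. IC50 came from 10-point dose-response curves fitted to a four-parameter equation with Hill slope.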

T1 sequence (Q9UM73 1098-1410): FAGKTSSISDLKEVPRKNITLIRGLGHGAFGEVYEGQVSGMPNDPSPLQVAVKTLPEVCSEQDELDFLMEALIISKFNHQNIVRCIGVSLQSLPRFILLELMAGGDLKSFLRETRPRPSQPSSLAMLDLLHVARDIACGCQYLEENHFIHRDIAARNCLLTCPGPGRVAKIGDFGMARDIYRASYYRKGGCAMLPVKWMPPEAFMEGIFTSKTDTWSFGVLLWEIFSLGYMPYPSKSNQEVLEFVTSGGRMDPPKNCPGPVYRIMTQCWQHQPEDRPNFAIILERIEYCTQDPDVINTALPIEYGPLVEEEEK

O=C(COc1ccc(OC(F)(F)F)cc1)NCc1nc(C(=O)O)cs1 [Entry 302, 2-({[({4-[(trifluoromethyl)oxy]phenyl}oxy)acetyl]amino}methyl)-1,3-thiazole-4-carboxylic acid] showed an IC50 greater than 2000 nM.
For CCCC1CCN(C(=O)c2csc(CNC(=O)COc3ccc(OC(F)(F)F)cc3)n2)CC1 [Entry 245, N-({4-[(4-propylpiperidin-1-yl)carbonyl]-1,3-thiazol-2-yl}methyl)-2-({4-[(trifluoromethyl)oxy]phenyl}oxy)acetamide], the IC50 was 500 to 2000 nM.
CC(C)(C)OC(=O)NCCCCCNC(=O)c1csc(CNC(=O)COc2ccc(OC(F)(F)F)cc2)n1 [Entry 123, 1,1-dimethylethyl [5-({[2-({[({4-[(trifluoromethyl)oxy]phenyl}oxy)acetyl]amino}methyl)-1,3-thiazol-4-yl]carbonyl}amino)pentyl]carbamate] was tested, and the IC50 was 50 to 500 nM.
NC(=O)[C@@H](Cc1ccccc1)NC(=O)c1csc(CNC(=O)COc2ccc(OC(F)(F)F)cc2)n1 [Entry 70, Nalpha-{[2-({[({4-[(trifluoromethyl)oxy]phenyl}oxy)acetyl]amino}methyl)-1,3-thiazol-4-yl]carbonyl}-D-phenylalaninamide] showed an IC50 of 50 to 500 nM.
COc1ccc(CCNC(=O)c2coc(CNC(=O)COc3ccc(OC(F)(F)F)cc3)n2)cc1 [Entry 224, N-{2-[4-(methyloxy)phenyl]ethyl}-2-({[({4-[(trifluoromethyl)oxy]phenyl}oxy)acetyl]amino}methyl)-1,3-oxazole-4-carboxamide] gave an IC50 of 500 to 2000 nM.
COc1ccccc1CNC(=O)c1csc(CNC(=O)COc2ccc(Br)cc2)n1 [Entry 277, 2-[({[(4-bromophenyl)oxy]acetyl}amino)methyl]-N-{[2-(methyloxy)phenyl]methyl}-1,3-thiazole-4-carboxamide] showed an IC50 of 500 to 2000 nM.
In the case of O=C(COc1ccc(OC(F)(F)F)cc1)NCc1nc(C(=O)NCCc2ccccn2)co1 [Entry 296, N-(2-pyridin-2-ylethyl)-2-({[({4-[(trifluoromethyl)oxy]phenyl}oxy)acetyl]amino}methyl)-1,3-oxazole-4-carboxamide], the IC50 is reported as 500 to 2000 nM.
Molecule O=C(COc1ccc(OC(F)(F)F)cc1)NCc1nc(C(=O)NCCc2ccc(F)cc2)cs1 [Entry 24, N-[2-(4-fluorophenyl)ethyl]-2-({[({4-[(trifluoromethyl)oxy]phenyl}oxy)acetyl]amino}methyl)-1,3-thiazole-4-carboxamide] has an IC50 of less than 50 nM.
CN(C(=O)OC(C)(C)C)C1CCN(C(=O)c2csc(CNC(=O)COc3ccc(OC(F)(F)F)cc3)n2)C1 (stereo not shown) [Entry 295, 1,1-dimethylethyl methyl(1-{[2-({[({4-[(trifluoromethyl)oxy]phenyl}oxy)acetyl]amino}methyl)-1,3-thiazol-4-yl]carbonyl}pyrrolidin-3-yl)carbamate] was tested, and the IC50 was 500 to 2000 nM.
CCc1ccc(NC(=O)NCc2nc(C(=O)NCc3cccc(OC)c3OC)cs2)cc1 [Entry 134, N-{[2,3-bis(methyloxy)phenyl]methyl}-2-[({[(4-ethylphenyl)amino]carbonyl}amino)methyl]-1,3-thiazole-4-carboxamide] was tested, and the IC50 was 50 to 500 nM.
CSCCNC(=O)c1csc(CNC(=O)COc2ccc(OC(F)(F)F)cc2)n1 [Entry 195, N-[2-(methylthio)ethyl]-2-({[({4-[(trifluoromethyl)oxy]phenyl}oxy)acetyl]amino}methyl)-1,3-thiazole-4-carboxamide] showed an IC50 of 50 to 500 nM.
In the case of O=C(COc1ccc(OC(F)(F)F)cc1)NCc1nc(C(=O)NCCc2ccc(Cl)c(Cl)c2)cs1 [Entry 44, N-[2-(3,4-dichlorophenyl)ethyl]-2-({[({4-[(trifluoromethyl)oxy]phenyl}oxy)acetyl]amino}methyl)-1,3-thiazole-4-carboxamide], the IC50 is reported as 50 to 500 nM.
With CCC(C)CNC(=O)c1csc(CNC(=O)COc2ccc(OC(F)(F)F)cc2)n1 (stereo not shown) [Entry 210, N-(2-methylbutyl)-2-({[({4-[(trifluoromethyl)oxy]phenyl}oxy)acetyl]amino}methyl)-1,3-thiazole-4-carboxamide] the IC50 was 50 to 500 nM.
